The record followed here is US20210122730A1, “GLUCOCORTICOID RECEPTOR MODULATORS” (ORIC Pharmaceuticals, Inc., priority 2017, published 2021).

The target in this experiment is T1, GR (Homo sapiens, UniProt P04150).
T1 construct: expressed in transfected cells; host or cells: CHO-K1
T1 sequence (P04150 1-777): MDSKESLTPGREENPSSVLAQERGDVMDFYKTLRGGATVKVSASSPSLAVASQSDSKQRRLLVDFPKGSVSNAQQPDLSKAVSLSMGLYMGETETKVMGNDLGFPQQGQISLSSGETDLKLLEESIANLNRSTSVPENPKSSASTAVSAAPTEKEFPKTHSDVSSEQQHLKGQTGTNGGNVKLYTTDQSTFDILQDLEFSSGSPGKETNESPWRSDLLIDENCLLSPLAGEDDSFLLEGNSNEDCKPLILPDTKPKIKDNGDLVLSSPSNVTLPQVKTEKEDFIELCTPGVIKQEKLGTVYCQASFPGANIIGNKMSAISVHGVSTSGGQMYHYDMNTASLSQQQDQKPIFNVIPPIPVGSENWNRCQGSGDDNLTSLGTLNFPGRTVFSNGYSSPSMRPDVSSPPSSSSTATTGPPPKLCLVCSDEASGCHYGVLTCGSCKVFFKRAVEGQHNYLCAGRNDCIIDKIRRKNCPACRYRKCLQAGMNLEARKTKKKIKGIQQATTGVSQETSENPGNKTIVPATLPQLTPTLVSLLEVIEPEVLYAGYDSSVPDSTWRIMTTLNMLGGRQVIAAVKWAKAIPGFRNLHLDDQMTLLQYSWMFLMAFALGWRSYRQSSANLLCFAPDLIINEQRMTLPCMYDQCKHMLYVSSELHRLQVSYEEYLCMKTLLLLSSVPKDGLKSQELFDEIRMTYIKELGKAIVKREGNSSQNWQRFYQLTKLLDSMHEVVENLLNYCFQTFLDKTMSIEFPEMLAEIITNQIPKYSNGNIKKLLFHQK
Kind of experiment: In Vitro GR Luciferase Reporter Assay (antagonist mode, CHO-K1-GR-MMTV-Luc reporter cells). The conditions noted are these: antagonist assay with 10 nM Dexamethasone, 18-24 hours. The class given is cell-based. The source says: Example A: In Vitro GR Luciferase Reporter Assay
Cell Line: CHO-K1-GR-MMTV-Luc reporter cells
Culture Media: DMEM (with phenol red)+10% FBS
Assay Media: DMEM (without phenol red)+10% CSS
Culture CHO-K1I-GR-MMTV-Luc reporter cells in 15 cm plates in Culture Media at conditions less than 90% confluence.
Prepare 200×DMSO 1:5 serial dilutions of control and test compounds in 96-well non-sterile V bottom plate in DMSO, 8serial dilutions for each compound.
Prepare 5× Assay Media diluted compound serial dilutions in 96-well non-sterile V bottom plate: Add 97.5 uL/well of Assay Media into 96-well then add 2.5 ul of 200× concentration of compounds and mix well.
Seed cells for Antagonist Assay: […] CHO-K1-GR-MMTV-Luc reporter cells were seeded in a Corning 3707 flat clear bottom 384-well white TC plate in 20 ul of Assay Media containing 12.5 nM Dexamethasone (final concentration=10 nM).
Add compounds: 5 ul of assay media diluted compounds were added to appropriate wells and followed a quick spin (1000 rpm, 10 sec) to bring media and cells to the bottom of plate. The plates were covered with SealMate film to avoid evaporation and placed in 37° C. incubator for approximately 18-24 hours.
Read plates: Equilibrate appropriate amount of Promega OneGlo luciferase reagent to room temperature. Remove the plates from incubator and add 25 uL of OneGlo reagent/well by multiple channel pipette and read the plates with Tecan F500 luminometer within 3 minutes.
The ability of the compounds disclosed herein to inhibit GR activity was quantified and the respective IC50 value was determined. Table 1and Table 2provide the cellular IC50 values of compounds disclosed herein.
(In general: In a reporter assay the amount or activity of a reporter protein is the signal.)

Each structure is given as a SMILES string. Some results are limits rather than exact numbers.

What is called IC50 is the midpoint of a concentration-inhibition curve. A high value points to weaker potency. On to `Cc1ccnc(C(=O)[C@]23Cc4cnn(-c5ccc(F)cc5)c4C=C2CC[C@H](S(=O)(=O)c2ccccn2)C3)c1` [Example 34, ((4aS,6S)-1-(4-fluorophenyl)-6-(pyridin-2-ylsulfonyl)-1,4,5,6,7,8-hexahydro-4aH-benzo[f]indazol-4a-yl)(4-methylpyridin-2-yl)methanone], for which the IC50 was ≤ 100 nM.

`O=C(c1ccccn1)[C@]12Cc3cnn(-c4ccc(F)cc4)c3C=C1CC[C@H](S(=O)(=O)C1CCCCC1)C2` [Example 35, ((4aS,6S)-6-(cyclohexylsulfonyl)-1-(4-fluorophenyl)-1,4,5,6,7,8-hexahydro-4aH-benzo[f]indazol-4a-yl)(pyridin-2-yl)methanone]: the IC50 was ≤ 100 nM. With `Cc1ccnc(C(=O)[C@]23Cc4cnn(-c5ccc(F)cc5)c4C=C2CC[C@H](S(=O)(=O)c2ccccc2)C3)c1` [Example 36, ((4aS,6S)-1-(4-fluorophenyl)-6-(phenylsulfonyl)-1,4,5,6,7,8-hexahydro-4aH-benzo[f]indazol-4a-yl)(4-methylpyridin-2-yl)methanone], the IC50 was ≤ 100 nM. In the case of `O=C(c1ccccn1)[C@]12Cc3cnn(-c4ccc(F)cc4)c3C=C1CC[C@H](S(=O)(=O)c1cccc(Cl)c1)C2` [Example 37, ((4aS,6S)-6-((3-chlorophenyl)sulfonyl)-1-(4-fluorophenyl)-1,4,5,6,7,8-hexahydro-4aH-benzo[f]indazol-4a-yl)(pyridin-2-yl)methanone], the 50% inhibitory concentration (IC50) is ≤ 100 nM. For `Cc1ccnc(C(=O)[C@]23Cc4cnn(-c5ccc(F)cc5)c4C=C2CC[C@@H](S(=O)(=O)c2ccccc2)C3)c1` [Example 38, ((4aS,6R)-1-(4-fluorophenyl)-6-(phenylsulfonyl)-1,4,5,6,7,8-hexahydro-4aH-benzo[f]indazol-4a-yl)(4-methylpyridin-2-yl)methanone] the value was ≤ 100 nM; for `Cc1ccnc(C(=O)[C@]23Cc4cnn(-c5ccc(F)cc5)c4C=C2CC[C@H](S(=O)(=O)c2cnn(C)n2)C3)c1` [Example 39, ((4aS,6S)-1-(4-fluorophenyl)-6-((2-methyl-2H-1,2,3-triazol-4-yl)sulfonyl)-1,4,5,6,7,8-hexahydro-4aH-benzo[f]indazol-4a-yl)(4-methylpyridin-2-yl)methanone], ≤ 100 nM; for `CC(C)(C)S(=O)(=O)[C@H]1CCC2=Cc3c(cnn3-c3ccc(F)cc3)C[C@]2(C(=O)c2ccccn2)C1` [Example 40, ((4aS,6S)-6-(tert-butylsulfonyl)-1-(4-fluorophenyl)-1,4,5,6,7,8-hexahydro-4aH-benzo[f]indazol-4a-yl)(pyridin-2-yl)methanone], ≤ 100 nM.

In the case of `O=C(c1cc(C(F)(F)F)ccn1)[C@]12Cc3cnn(-c4ccc(F)cc4)c3C=C1CC[C@H](S(=O)(=O)c1ccccn1)C2` [Example 41, ((4aS,6S)-1-(4-fluorophenyl)-6-(pyridin-2-ylsulfonyl)-1,4,5,6,7,8-hexahydro-4aH-benzo[f]indazol-4a-yl)(4-(trifluoromethyl)pyridin-2-yl)methanone], the IC50 was ≤ 100 nM. For the compound `Cc1ccc(C(=O)[C@]23Cc4cnn(-c5ccc(F)cc5)c4C=C2CC[C@H](S(=O)(=O)c2ccccn2)C3)nc1` [Example 42, ((4aS,6S)-1-(4-fluorophenyl)-6-(pyridin-2-ylsulfonyl)-1,4,5,6,7,8-hexahydro-4aH-benzo[f]indazol-4a-yl)(5-methylpyridin-2-yl)methanone], the half-inhibitory concentration (IC50) was ≤ 100 nM.

As for `O=C(c1ccccn1)[C@]12Cc3cnn(-c4ccc(F)cc4)c3C=C1CC[C@H](S(=O)(=O)c1cc(C(F)(F)F)ccn1)C2` [Example 43, ((4aS,6S)-1-(4-fluorophenyl)-6-((4-(trifluoromethyl)pyridin-2-yl)sulfonyl)-1,4,5,6,7,8-hexahydro-4aH-benzo[f]indazol-4a-yl)(pyridin-2-yl)methanone], the IC50 is ≤ 100 nM. For `Cc1ccnc(C(=O)[C@]23Cc4cnn(-c5ccc(F)cc5)c4C=C2CC[C@H](S(=O)(=O)c2cccc(Cl)c2)C3)c1` [Example 44, ((4aS,6S)-6-((3-chlorophenyl)sulfonyl)-1-(4-fluorophenyl)-1,4,5,6,7,8-hexahydro-4aH-benzo[f]indazol-4a-yl)(4-methylpyridin-2-yl)methanone] the value was ≤ 100 nM; for `Cc1ccc(C(=O)[C@]23Cc4cnn(-c5ccc(F)cc5)c4C=C2CC[C@H](S(=O)(=O)c2ccccc2)C3)nc1` [Example 45, ((4aS,6S)-1-(4-fluorophenyl)-6-(phenylsulfonyl)-1,4,5,6,7,8-hexahydro-4aH-benzo[f]indazol-4a-yl)(5-methylpyridin-2-yl)methanone], ≤ 100 nM. Take `O=C(c1ccccn1)[C@]12Cc3cnn(-c4ccc(F)cc4)c3C=C1CC[C@H](S(=O)(=O)C1CCOCC1)C2` [Example 46, ((4aS,6S)-1-(4-fluorophenyl)-6-((tetrahydro-2H-pyran-4-yl)sulfonyl)-1,4,5,6,7,8-hexahydro-4aH-benzo[f]indazol-4a-yl)(pyridin-2-yl)methanone]: the 50% inhibitory concentration (IC50) was ≤ 100 nM.

`O=C(c1ccccn1)[C@]12Cc3cnn(-c4ccc(F)cc4)c3C=C1CC[C@H](S(=O)(=O)c1ccncc1)C2` [Example 47, ((4aS,6S)-1-(4-fluorophenyl)-6-(pyridin-4-ylsulfonyl)-1,4,5,6,7,8-hexahydro-4aH-benzo[f]indazol-4a-yl)(pyridin-2-yl)methanone]: the half-maximal inhibitory concentration (IC50) is ≤ 100 nM. On to `Cc1ccnc(C(=O)[C@]23Cc4cnn(-c5ccc(F)cc5)c4C=C2CC[C@H](S(=O)(=O)c2ccncc2)C3)c1` [Example 48, ((4aS,6S)-1-(4-fluorophenyl)-6-(pyridin-4-ylsulfonyl)-1,4,5,6,7,8-hexahydro-4aH-benzo[f]indazol-4a-yl)(4-methylpyridin-2-yl)methanone], for which the 50% inhibitory concentration (IC50) was ≤ 100 nM.

Take `CC(C)(C)CS(=O)(=O)[C@H]1CCC2=Cc3c(cnn3-c3ccc(F)cc3)C[C@]2(C(=O)c2ccccn2)C1` [Example 49, ((4aS,6S)-1-(4-fluorophenyl)-6-(neopentylsulfonyl)-1,4,5,6,7,8-hexahydro-4aH-benzo[f]indazol-4a-yl)(pyridin-2-yl)methanone]: the IC50 was ≤ 100 nM. To `O=C(c1ccccn1)[C@]12Cc3cnn(-c4ccc(F)cc4)c3C=C1CC[C@H](S(=O)(=O)C1CCCC1)C2` [Example 50, ((4aS,6S)-6-(cyclopentylsulfonyl)-1-(4-fluorophenyl)-1,4,5,6,7,8-hexahydro-4aH-benzo[f]indazol-4a-yl)(pyridin-2-yl)methanone] belongs ≤ 100 nM. For `Cc1ccc(C(=O)[C@]23Cc4cnn(-c5ccc(F)cc5)c4C=C2CC[C@@H](S(=O)(=O)c2ccccc2)C3)nc1` [Example 51, ((4aS,6R)-1-(4-fluorophenyl)-6-(phenylsulfonyl)-1,4,5,6,7,8-hexahydro-4aH-benzo[f]indazol-4a-yl)(5-methylpyridin-2-yl)methanone] the value was ≤ 100 nM. For `O=C(c1ccccn1)[C@]12Cc3cnn(-c4ccc(F)cc4)c3C=C1CC[C@H](S(=O)(=O)c1cccnc1)C2` [Example 53, ((4aS,6S)-1-(4-fluorophenyl)-6-(pyridin-3-ylsulfonyl)-1,4,5,6,7,8-hexahydro-4aH-benzo[f]indazol-4a-yl)(pyridin-2-yl)methanone] the value was ≤ 100 nM; for `O=C(c1cc(C(F)(F)F)ccn1)[C@]12Cc3cnn(-c4ccc(F)cc4)c3C=C1CC[C@H](S(=O)(=O)c1cccnc1)C2` [Example 54, ((4aS,6S)-1-(4-fluorophenyl)-6-(pyridin-3-ylsulfonyl)-1,4,5,6,7,8-hexahydro-4aH-benzo[f]indazol-4a-yl)(4-(trifluoromethyl)pyridin-2-yl)methanone], ≤ 100 nM. On to `O=C(c1ccc(C2CC2)cn1)[C@]12Cc3cnn(-c4ccc(F)cc4)c3C=C1CC[C@H](S(=O)(=O)c1ccccn1)C2` [Example 57, (5-cyclopropylpyridin-2-yl)((4aS,6S)-1-(4-fluorophenyl)-6-(pyridin-2-ylsulfonyl)-1,4,5,6,7,8-hexahydro-4aH-benzo[f]indazol-4a-yl)methanone], for which the half-inhibitory concentration (IC50) is ≤ 100 nM.
